Source: PubChem BioAssay AID2060488 (Molecular Pharmacology Branch, DTP, NCI, 2025)
pIC50: −log10 of the molar value.

System: 966289-007-R4-J1-PDC complex spheroid viability
Assay: Anticancer human tumor 966289-007-R4-J1-PDC patient-derived pancreatic adenocarcinoma cell line growth inhibition [GQUAD]
Details: for pIC50: curve of first compound; for viability, T/C: stronger effect = lower value
Summary of the method: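 Viability of tumor cells grown as complex spheroids with endothelial and stromal cells, exposed to drug combinations. Top concentration at or near clinical Cmax (else 10 microM), diluted in half-log increments.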

[1] = second compound 0.0316 µM, first compound 0.0316 µM
[2] = second compound 0.0316 µM, first compound 0.1 µM
[3] = second compound 0.0316 µM, first compound 0.316 µM
[4] = second compound 0.0316 µM, first compound 1 µM
[5] = second compound 0.0316 µM, first compound 3.16 µM
[6] = second compound 0.0316 µM, first compound 10 µM
[7] = second compound 0.1 µM, first compound 0.0316 µM
[8] = second compound 0.1 µM, first compound 0.1 µM
[9] = second compound 0.1 µM, first compound 0.316 µM
[10] = second compound 0.1 µM, first compound 1 µM
[11] = second compound 0.1 µM, first compound 3.16 µM
[12] = second compound 0.1 µM, first compound 10 µM
[13] = second compound 0.316 µM, first compound 0.0316 µM
[14] = second compound 0.316 µM, first compound 0.1 µM
[15] = second compound 0.316 µM, first compound 0.316 µM
[16] = second compound 0.316 µM, first compound 1 µM
[17] = second compound 0.316 µM, first compound 3.16 µM
[18] = second compound 0.316 µM, first compound 10 µM
[19] = second compound 1 µM, first compound 0.0316 µM
[20] = second compound 1 µM, first compound 0.1 µM
[21] = second compound 1 µM, first compound 0.316 µM
[22] = second compound 1 µM, first compound 1 µM
[23] = second compound 1 µM, first compound 3.16 µM
[24] = second compound 1 µM, first compound 10 µM
[25] = second compound 3.16 µM, first compound 0.0316 µM
[26] = second compound 3.16 µM, first compound 0.1 µM
[27] = second compound 3.16 µM, first compound 0.316 µM
[28] = second compound 3.16 µM, first compound 1 µM
[29] = second compound 3.16 µM, first compound 3.16 µM
[30] = second compound 3.16 µM, first compound 10 µM
[31] = second compound 10 µM, first compound 0.0316 µM
[32] = second compound 10 µM, first compound 0.1 µM
[33] = second compound 10 µM, first compound 0.316 µM
[34] = second compound 10 µM, first compound 1 µM
[35] = second compound 10 µM, first compound 3.16 µM
[36] = second compound 10 µM, first compound 10 µM
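Further: spheroids exposed to the agents for seven days before readout.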
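Wherever viability, T/C is given: percent viability relative to DMSO vehicle control wells taken as 100%.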

Work on C#Cc1c(F)ccc2cc(O)cc(-c3ncc4c(N5CC6CCC(C5)N6)nc(OCC56CCCN5CC(F)C6)nc4c3F)c12 (centres undefined) + CN(C)c1ccc(Nc2c3ccc(NC(=O)CCN4CCCC4)cc3nc3cc(NC(=O)CCN4CCCC4)ccc23)cc1 yielded a pIC50 (second compound 0.0316 µM) of less than 5.00, a pIC50 (second compound 0.1 µM) of less than 5.00 and a pIC50 (second compound 0.316 µM) of less than 5.00. It also gave a pIC50 (second compound 1 µM) of less than 5.00, a pIC50 (second compound 3.16 µM) of less than 5.00 and a pIC50 (second compound 10 µM) of 5.75. For the same molecule, the viability, T/C [1] was 103%, the viability, T/C [2] was 88.4% and the viability, T/C [3] was 98.5%. For the same molecule, the viability, T/C [4] was 86.7%, the viability, T/C [5] was 95.9% and the viability, T/C [6] was 93.5%. For the same molecule, the viability, T/C [7] was 96.8%, the viability, T/C [8] was 84.4% and the viability, T/C [9] was 94.5%. It also gave a viability, T/C [10] of 89%, a viability, T/C [11] of 90.7% and a viability, T/C [12] of 96%. For the same molecule, the viability, T/C [13] was 98.2%, the viability, T/C [14] was 91.2% and the viability, T/C [15] was 105%. For the same molecule, the viability, T/C [16] was 96.3%, the viability, T/C [17] was 95.2% and the viability, T/C [18] was 103%. It also gave a viability, T/C [19] of 87.9%, a viability, T/C [20] of 89.9% and a viability, T/C [21] of 98.8%. The viability, T/C [22] was 96.8%, the viability, T/C [23] was 95.5% and the viability, T/C [24] was 102%. It also gave a viability, T/C [25] of 88.5%, a viability, T/C [26] of 91.1% and a viability, T/C [27] of 96.8%. For the same molecule, the viability, T/C [28] was 99.4%, the viability, T/C [29] was 104% and the viability, T/C [30] was 68.7%. For the same molecule, the viability, T/C [31] was 104%, the viability, T/C [32] was 106% and the viability, T/C [33] was 103%. For the same molecule, the viability, T/C [34] was 85%, the viability, T/C [35] was 16.1% and the viability, T/C [36] was 0.99%.

Molecule CCCS(=O)(=O)Nc1ccc(F)c(C(=O)c2c[nH]c3ncc(-c4ccc(Cl)cc4)cc23)c1F + CN(C)c1ccc(Nc2c3ccc(NC(=O)CCN4CCCC4)cc3nc3cc(NC(=O)CCN4CCCC4)ccc23)cc1 has a pIC50 (second compound 0.0316 µM) of 5.13, a pIC50 (second compound 0.1 µM) of 5.13 and a pIC50 (second compound 0.316 µM) of 5.13. For the same molecule, the pIC50 (second compound 1 µM) was 5.16, the pIC50 (second compound 3.16 µM) was 5.25 and the pIC50 (second compound 10 µM) was 5.69. For the same molecule, the viability, T/C [1] was 99.4%, the viability, T/C [2] was 97.3% and the viability, T/C [3] was 109%. For the same molecule, the viability, T/C [4] was 103%, the viability, T/C [5] was 104% and the viability, T/C [6] was 30.5%. For the same molecule, the viability, T/C [7] was 100%, the viability, T/C [8] was 101% and the viability, T/C [9] was 99.3%. It also gave a viability, T/C [10] of 102%, a viability, T/C [11] of 107% and a viability, T/C [12] of 30.8%. The viability, T/C [13] was 100%, the viability, T/C [14] was 105% and the viability, T/C [15] was 103%. The viability, T/C [16] was 106%, the viability, T/C [17] was 102% and the viability, T/C [18] was 31.8%. For the same molecule, the viability, T/C [19] was 92.2%, the viability, T/C [20] was 104% and the viability, T/C [21] was 109%. It also gave a viability, T/C [22] of 108%, a viability, T/C [23] of 103% and a viability, T/C [24] of 24.4%. For the same molecule, the viability, T/C [25] was 99.8%, the viability, T/C [26] was 99.9% and the viability, T/C [27] was 110%. The viability, T/C [28] was 104%, the viability, T/C [29] was 93.4% and the viability, T/C [30] was 7.98%. For the same molecule, the viability, T/C [31] was 103%, the viability, T/C [32] was 102% and the viability, T/C [33] was 106%. It also gave a viability, T/C [34] of 103%, a viability, T/C [35] of 17.2% and a viability, T/C [36] of 0.53%.
